Assay results taken from patent publication US8933099B2, “Monocyclic pyridine derivative” (Eisai R&D Management Co., Ltd., priority 2013, dated 2015).

Legend:
Format in all cases: in vivo
[1] = test system: human endometrial cancer cell line MFE296 xenograft; assay: Antitumor effect in MFE296 subcutaneous xenograft model in mice; conditions: oral, once a day for 14 days, tumor volume last day
Text: (§1) Human endometrial cancer cell line MFE296 (DSMZ Number ACC-419), which had been cultured in an RPMI-1640 medium containing 10% FBS, and penicillin and streptomycin, were adjusted to a concentration of 1×10^8 cells/mL with Hanks' Balanced Salt Solution (GIBCO #24020) to prepare a cell suspension, and the suspension was mixed with […] (BD Biosciences, Cat#354234) in a ratio of 1:1 to prepare a cell suspension in a concentration of 5×10^7 cells/ml. The suspension was inoculated in a volume of 100 μL into a subcutaneous part of a right flank of nude mice, 7 weeks of age (BALB/cAJcl-nu/nu, female, Clea Japan Inc.). Twelve days after cell inoculation, the shortest diameter and the longest diameter of a tumor in each mouse were measured by using an electronic digital caliper (Digimatic™ caliper, Mitutoyo Corporation), so as to calculate the volume of the tumor in accordance with the following calculation formula: Tumor volume(mm^3)=Longest diameter(mm)×Shortest diameter(mm)×Shortest diameter(mm)/2
(§2) On the basis of the volumes of tumors obtained on the first day of administration, the nude mice were grouped such that averages of the tumor volumes were substantially equal among the groups. Each test substance was dissolved in DMSO, Tween 80 was added thereto to prepare a solution in a 10-fold concentration and the thus prepared solution was stored at the freezer before use. Immediately before the administration, the stock solution was diluted with a 5% glucose solution to obtain a final administration solution (in which a ratio in % among DMSO, Tween 80 and the 5% glucose solution was 3.5:6.5:90). Each evaluation sample was orally administered to test substance administration group at a volume of 0.4 mL per 20 g of body weight once a day continuously for 14 days, and in a control group, an administration solvent was orally administered under the same conditions. Incidentally, the experiment was conducted on groups each consisting of 5 mice.
(§3) With respect to each of the control group and test substance administration group, a ratio of the weight measured on the final day to the weight measured on the first day (relative body weight: RBW) was calculated. If a ratio of the RBW of the test substance administration group/the RBW of the control group is 0.9 or more, the corresponding test substance administration group was defined as a well-tolerated. In the test substance administration group thus defined as well-tolerated, a ratio of the tumor volume of the test substance-dosing group to the tumor volume of the control group obtained on the last day (TIC) (%) was calculated, and shown in Table 27.

[2] = test system: human endometrial cancer cell line AN3CA xenograft; assay: Antitumor effect in AN3CA subcutaneous xenograft model in mice; conditions: oral, once a day for 14 days, tumor volume last day
Text: as §1, with “AN3CA (ATCC” for “MFE296 (DSMZ”, “HTB-111),” for “ACC-419),”, “RPM-1640” for “RPMI-1640”, “The cell” for “The”, “[…]” for “100 μL”, “Eleven” for “Twelve”
as §2
as §3, with “(T/C)” for “(TIC)”, “26.” for “27.”

[3] = test system: human lung cancer cell line NCI-H1581 xenograft; assay: Antitumor effect in NCI-H1581 subcutaneous xenograft model in mice; conditions: oral, once a day for 11 days, tumor volume last day
Method: Human lung cancer cell line NCI-H1581, which had been cultured in RPMI-1640 medium containing 10% FBS, and penicillin and streptomycin, were adjusted to a concentration of 1×10^8 cells/mL with Hanks' Balanced Salt Solution(GIBCO #24020) to prepare a cell suspension, and the suspension was mixed with […] in a ratio of 1:1 to prepare a cell suspension in a concentration of 5×10^7 cells/mL. The cell suspension was inoculated in a volume of 100 μL into a subcutaneous part of a right flank of each of nude mice, 6 to 7 weeks of ages (BALB/cAJcl-nu/nu, female, Clea Japan Inc.). Ten to 11 days after the cell inoculation, the shortest diameter and the longest diameter of a tumor in each mouse were measured by using an electronic digital caliper (Digimatic™ caliper, Mitutoyo Corporation), so as to calculate the volume of the tumor in accordance with the following calculation formula: Tumor volume(mm^3)=Longest diameter(mm)×Shortest diameter(mm)×Shortest diameter(mm)/2
as §2, with “11” for “14”
as §3, with “22.” for “27.”

With `CNC(=O)n1ccc2cc(Oc3ccnc(NC(=O)c4ccc(C5CCN(CCO)CC5)cc4)c3)c(OCCOC)cc21` [Example 22, 5-((2-(4-(1-(2-Hydroxyethyl)piperidin-4-yl)benzamide)pyridin-4-yl)oxy)-6-(2-methoxyethoxy)-N-methyl-1H-indole-1-carboxamide] the “T/C (%)” value ([1]; 6.25 mg/kg) was 91%, the “T/C (%)” value ([1]; 12.5 mg/kg) was 85% and the “T/C (%)” value ([1]; 25 mg/kg) was 60%. For the same molecule, the “T/C (%)” value ([1]; 50 mg/kg) was 54%, the “T/C (%)” value ([2]; 6.25 mg/kg) was 29% and the “T/C (%)” value ([2]; 12.5 mg/kg) was 11%. For the same molecule, the “T/C (%)” value ([2]; 25 mg/kg) was 4%, the “T/C (%)” value ([2]; 50 mg/kg) was 2% and the “T/C (%)” value ([3]; 6.25 mg/kg) was 46%. For the same molecule, the “T/C (%)” value ([3]; 12.5 mg/kg) was 21%, the “T/C (%)” value ([3]; 25 mg/kg) was 13% and the “T/C (%)” value ([3]; 50 mg/kg) was 8%.
